Experimental data from patent publication US20260001841A1, “PREPARATION OF STABLE PSILOCIN SALTS, ESTERS AND CONJUGATES AND USES THEREOF” (LOBE SCIENCES LTD., priority 2022, published 2026).
Where “and” joins values, the source holds several entries; their conditions need not be identical. Equal values may be shown once. Entries after “also recorded” stand apart in the source; their conditions may differ.

Assays:
[1] = psilocin from psilocybin dosing; cited from earlier work
[2] = doses as low as 5 mg psilocybin (about 2 mg psilocin); cited from earlier work
[3] = Stability studies on psilocin mucate capsule (appearance, HPLC assay and impurities, TM-022-0392); assay type: physicochemical; settings: for Appearance, Packaging: Labeled, amber glass bottle with white closure containing 15 partially filled white opaque capsules / Appearance, Product: White to light brown powder partially filling white opaque capsules / Total Impurities TM-22-0392 / Impurities TM-22-0392, individual impurities / Assay TM-22-0392 (% Label Claim): capsule; for Assay TM-22-0392 (% Label Claim): specification 90.0-110.0%
Procedure: Additional stability studies were performed on psilocin mucate (also known as psilocin mucic acid salt or conjugate or psilocin galactaric acid salt or conjugate) capsule.
Appearance was evaluated by viewing of the sample on a watchglass over a black and white background.
Assay conditions for Test/Method TM-022-0392 assessing stability and impurities were as follows: • Mobile phase: MPA: 945 mL water, 5 mL H3PO4, PH to 5.7 with NaOH; MPB: Acetonitrile • Diluent: 80:20 Water:MeOH • Standard: 0.4 mg/mL Psilocin Mucic RS in Diluent • Sample: 0.4 mg/mL Psilocin Mucic API in Diluent HPLC Conditions are depicted in Table 3.
Calculations were against a bracketing external standard.
Identity of psilocin mucate was verified by ultraviolet (UV) assessment, wherein the UV spectrum of the main peak in the standard matched the UV spectrum of the main peak in the sample and by retention time wherein the retention time ratio was 0.98-1.02.

healthy subjects = test: Phase one single-dose study of psilocin mucic acid conjugate capsules: psychiatrist mood assessment and mini mental state examination (MMSE); settings: single oral capsule, 4.05 mg conjugate equivalent to 2 mg psilocin

Molecule	Estimated dose-normalized bioavailability [1] [%]	Adverse psychological effects reported [2]	Time demonstrated to be stable [3]	Appearance, Packaging: Labeled, amber glass bottle with white closure containing 15 partially filled white opaque capsules ([3]; 7 Months)	Appearance, Product: White to light brown powder partially filling white opaque capsules ([3]; 7 Months)	Total Impurities TM-22-0392 ([3]; 7 Months) [%]	Impurities TM-22-0392, individual impurities ([3]; 7 Months, all impurities)	Assay TM-22-0392 (% Label Claim) ([3]; 7 Months) [%]	Appearance, Packaging: Labeled, amber glass bottle with white closure containing 15 partially filled white opaque capsules ([3]; Initial)	Appearance, Product: White to light brown powder partially filling white opaque capsules ([3]; Initial)	Total Impurities TM-22-0392 ([3]; Initial) [%]	Impurities TM-22-0392, individual impurities ([3]; Initial, impurity at RRT1.12)	Assay TM-22-0392 (% Label Claim) ([3]; Initial) [%]	FEELING STATUS (mood assessed by psychiatrist) (healthy subjects; one entry per subject (01-10))	MMSE score (healthy subjects; one value per subject (01-10), scores expected below 25 with a hallucinogenic substance)
CN(C)CCc1c[nH]c2cccc(OP(=O)(O)O)c12 [psilocybin, Psilocybin]	52.7	hallucinogenic effects coupled with increased anxiety													
psilocin mucate			at least 7 months	Conforms	Conforms	<0.05	All <0.05%	101.7	Conforms	Conforms	0.08	RRT1.12/0.08%	100.8	Feel calm, less thoughts, happier mood; also recorded: Euphoric, better mood, it helps with life stress; also recorded: Euphories, better mood, sleepy, feel time is slower; also recorded: Sleepy, better thoughts, less worried in general; also recorded: Did not feel change in mood but feeling cold extremities; also recorded: More relaxed, want to drink sweet tea, better mood; also recorded: Better mood, feels hyper sexual; also recorded: Felt high mood, now they feel in good way,, they would love to; also recorded: Less anxious, better mood, increase their appetite; also recorded: Feel little beet happier, better energy	28 (3×) and 27 (2×) and 30 (3×) and 29 (2×)
